Measured values reported in EP0545103A1, “Insecticidal, acaricidal and molluscicidal 1-(substituted) thioalkylpyrroles” (priority 1991, dated 1993).

Legend:
Assay type in all cases: in vivo
Set-up in all cases: key: 0: no effect; 10-25% kill; 26-35% kill; 36-45% kill; 46-55% kill; 56-65% kill; 66-75% kill; 76-85% kill; 86-99% kill; 9: 100% kill
[1] = tested on: Heliothis virescens, egg, tobacco budworm; test: Tobacco budworm egg test, dipped cotton leaf and eggs; conditions: mortality rating after 3 days
Experimental: (§1) Test solutions are prepared by dissolving the test compound in a 35% acetone in water mixture to give a concentration of 10,000 ppm. Subsequent dilutions are made with water as needed.
Heliothis virescens, egg, tobacco budworm
A young cotton leaf about 6-7cm in length is dipped in an agitated test suspension for about 3 seconds. Eggs are collected on a cheesecloth and the cloth is cut into 10-20mm squares, each containing approximately 50-100 eggs which are 6-30 hours old. The egg-containing cheesecloth square is similarly dipped in a test suspension and placed on a treated cotton leaf. The combination is dried in a hood and then placed in an 8 ounce Dixie® cup #2168-ST (240ml volume, 6cm tall, 9.5cm top diameter, 8.0cm bottom diameter) into which a 5cm length of damp dental wick has been placed. The cup is covered with a clear plastic lid and held for 3 days, after which mortality counts are made.
(§2) All of the above tests are rated according to the rating scale shown below.

[2] = tested on: Heliothis virescens, 3rd instar tobacco budworm; test: Tobacco budworm 3rd instar test, dipped cotton cotyledons; conditions: mortality rating after 3 days
Experimental: as §1
Heliothis virescens, 3rd instar tobacco budworm
Cotton cotyledons are dipped in the test solution and allowed to dry in a hood. When dry, each is cut into quarters and ten sections are placed individually in 30 mL plastic medicine cups containing a 5-7mm long piece of damp dental wick. One 3rd instar caterpillar is added to each cup and the cup is sealed with MYLAR® film. Treatments are maintained for 3 days before a mortality count and observation of reduction in feeding damage are made.
as §2

[3] = tested on: Spodoptera eridania, 3rd instar larvae, southern armyworm; test: Southern armyworm 3rd instar test, dipped limabean leaf; conditions: for ARMYWORM Day 3: rating at 3 days; for ARMYWORM Day 5: rating at 5 days
Experimental: as §1
Spodoptera eridania, 3rd instar larvae, southern armyworm
A Sieva limabean leaf expanded to 7-8 cm in length is dipped in the test solution with agitation for 3 seconds and allowed to dry in a hood. The leaf is then placed in a 100 x 10 mm petri dish containing a damp filterpaper on the bottom and ten 3rd instar caterpillars. At 3 and 5 days, observations are made of mortality, reduced feeding, or any interference with normal molting.
as §2

[4] = tested on: Spodoptera eridania, 3rd instar larvae, southern armyworm; test: Southern armyworm 7-day residual test; conditions: R designates Residual: 7-day residual foliage, concentration not given; for ARMYWORM Day 3 R: rating at 3 days; for ARMYWORM Day 5 R: rating at 5 days
Experimental: as §1
Spodoptera eridania, 3rd instar larvae, southern armyworm, 7-day residual
The limabean leaves treated in the above test are maintained under high intensity lamps in the greenhouse for 7 days. These lamps duplicate the effects of a bright sunny day in June in New Jersey and are kept on for 14 hour day length. After 7 days, the foliage is sampled and assayed as in the above-said test.
as §2

[5] = tested on: Spodoptera eridania, 3rd instar larvae, southern armyworm; test: Southern armyworm systemic uptake (stem systemic) test; conditions: cut stem in emulsion 3 days
Description: Spodoptera eridania, systemic uptake, 3rd instar larvae, southern armyworm
Subsequent 10-fold dilutions are made with water as needed. Sieva limabean plants, with the primary leaves expanded to a length of 7-8 cm, are cut off at least 3 cm above the soil level to avoid contamination with soil bacteria which will cause decay of the stem during the test. The cut stem is placed in the test emulsion and wrapped with a bit of cotton to hold the stem off the bottom of the bottle and to limit evaporation. The treated stem is thus maintained for 3 days at 27° C to allow the test compound to be taken up into the plant. Following this, one leaf is removed from the plant and placed in a 100 x 10 mm petri dish with 10 southern armyworms as described above. Mortality counts and observations of feeding damage are made 3 and 5 days later.
as §2

[6] = tested on: Diabrotic undecimpunctata howardi, 3rd instar southern corn rootworm; test: Southern corn rootworm soil test; conditions: mortality rating after 6 days
Experimental: Diabrotic undecimpunctata howardi, 3rd instar southern corn rootworm
One cc of fine talc is placed in a 30 mL wide-mouth screw-top glass jar. One mL of the appropriate acetone test solution is pipetted onto the talc so as to provide 1.25 and 0.25 mg of active ingredient per jar. The jars are set under a gentle air flow until the acetone is evaporated. The dried talc is loosened, 1 cc of millet seed is added to serve as food for the insects and 25 mL of moist soil is added to each jar. The jar is capped and the contents thoroughly mixed on a Vortex Mixer. Following this, ten 3rd instar rootworms are added to each jar and the jars are loosely capped to allow air exchange for the larvae. The treatments are held for 6 days when mortality counts are made. Missing larvae are presumed dead, since they decompose rapidly and can not be found. The concentrations used in this test correspond approximately to 50 and 10 kg/ha, respectively.
as §2

| SMILES | TOBACCO BUDWORM Egg ([1]; 1000 ppm) | TOBACCO BUDWORM 3rd Instar ([2]; 100 ppm) | TOBACCO BUDWORM 3rd Instar ([2]; 1000 ppm) | ARMYWORM Day 3 ([3]; 100 ppm) | ARMYWORM Day 5 ([3]; 100 ppm) | ARMYWORM Day 3 ([3]; 1000 ppm) | ARMYWORM Day 5 ([3]; 1000 ppm) | ARMYWORM Day 3 R [4] | ARMYWORM Day 5 R [4] | ARMYWORM Stem Sys [5] | SOUTHERN CORN ROOTWORM ([6]; 50 (ppm as headed)) | ARMYWORM Day 3 ([3]; 10 ppm) | ARMYWORM Day 5 ([3]; 10 ppm) | TOBACCO BUDWORM 3rd Instar ([2]; 10 ppm) | SOUTHERN CORN ROOTWORM ([6]; 1 (ppm as headed)) | SOUTHERN CORN ROOTWORM ([6]; 10 (ppm as headed)) | TOBACCO BUDWORM Egg ([1]; 100 ppm) | TOBACCO BUDWORM Egg ([1]; 300 ppm) |
| --- | --- | --- | --- | --- | --- | --- | --- | --- | --- | --- | --- | --- | --- | --- | --- | --- | --- | --- |
| N#Cc1c(Br)c(C(F)(F)F)n(CSc2nc3ccccc3[nH]2)c1-c1ccc(Cl)cc1 [Example 9] | 0 | 0 | 0 | 0 | 0 | 6 (66-75% kill) | 7 (76-85% kill) | 9 (100% kill) | 9 (100% kill) | 0 | 0 | – | – | – | – | – | – | – |
| CSCn1c(Br)c(Br)c(C#N)c1SC [Example 43] | 0 | – | 0 | 0 | 0 | 9 (100% kill) | 9 (100% kill) | – | – | 0 | 0 | 0 | 0 | – | – | – | – | – |
| CC(C)OP(=S)(OC(C)C)SCn1c(-c2ccc(Cl)cc2)c(C#N)c(Br)c1C(F)(F)F [Example 27] | 0 | 7 (76-85% kill) | 9 (100% kill) | 9 (100% kill) | 9 (100% kill) | 9 (100% kill) | 9 (100% kill) | 9 (100% kill) | 9 (100% kill) | 0 | 9 (100% kill) | 0 | 0 | 0 | 6 (66-75% kill) | 7 (76-85% kill) | – | – |
| N#Cc1c(Br)c(C(F)(F)F)n(CSc2nc3ccccc3o2)c1-c1ccc(Cl)cc1 [Example 6] | 0 | – | – | 9 (100% kill) | – | 9 (100% kill) | – | 9 (100% kill) | 9 (100% kill) | 0 | – | 0 | – | 0 | 0 | – | – | – |
| N#Cc1c(Br)c(Br)n(CSCc2ccccc2)c1Br [Example 40] | 0 | 0 | 0 | 0 | 0 | 9 (100% kill) | 9 (100% kill) | 0 | – | 0 | 0 | 0 | 0 | – | – | – | – | – |
| N#Cc1c(Br)c(C(F)(F)F)n(CS(=O)(=O)c2ccccc2)c1-c1ccc(Cl)cc1 [Example 46] | 0 | – | – | 0 | 0 | 9 (100% kill) | 9 (100% kill) | 4 (46-55% kill) | 9 (100% kill) | 0 | 8 (86-99% kill) | 0 | 0 | – | 0 | 0 | – | – |
| CN(C)C(=S)SCn1c(Cl)c(Cl)c(C#N)c1-c1ccc(Cl)c(Cl)c1 [Example 32] | 0 | 0 | 0 | – | – | – | – | 0 | 0 | 0 | 0 | 0 | 0 | – | – | – | – | – |
| CN(C)C(=S)SCn1c(Br)c(Br)c(C#N)c1Br [Example 31] | 0 | – | 6 (66-75% kill) | 9 (100% kill) | 9 (100% kill) | 9 (100% kill) | 9 (100% kill) | 9 (100% kill) | 9 (100% kill) | 0 | 0 | 0 | 0 | – | – | – | – | – |
| N#Cc1c(Br)c(Br)n(CSC(=N)N)c1Br [Example 20] | 0 | 0 | 9 (100% kill) | 9 (100% kill) | 9 (100% kill) | 9 (100% kill) | 9 (100% kill) | 6 (66-75% kill) | – | – | 0 | 0 | 0 | 0 | – | – | 0 | 0 |
